# Experimental data taken from ChEMBL document CHEMBL1201861, “Genomics of Drug Sensitity in Cancer screening data, Wellcome Trust Sanger Institute”.
# Tested on: RO82-W-1;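 further: growth inhibition of human RO82-W-1 cells, measured with a cell viability assay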
# Experiment: cells
# Format: functional, cell-based, Homo sapiens
# Details: Homo sapiens, RO82-W-1
row,SMILES,IC50 [µM]
1,COc1cc2c(Nc3ccc(NC(=O)c4ccccc4)cc3)ncnc2cc1OCCCN1CCOCC1,> 4

# Tested on: HSC-2;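 further: growth inhibition of human HSC-2 cells, read out by a cell viability assay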
# Experiment: cells
# Format: functional, cell-based, Homo sapiens
# Details: Homo sapiens, HSC-2
# Description: SANGER: Inhibition of human HSC-2 cell growth in a cell viability assay.
row,SMILES,IC50 [µM]
1,COc1cc2c(Nc3ccc(NC(=O)c4ccccc4)cc3)ncnc2cc1OCCCN1CCOCC1,> 4

# Tested on: NB14;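 further: growth inhibition of NB14 cells measured with a cell viability assay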
# Experiment: cells
# Format: functional, cell-based, Homo sapiens
# Details: Homo sapiens, NB14
# Description: SANGER: Inhibition of human NB14 cell growth in a cell viability assay.
row,SMILES,IC50 [µM]
1,COc1cc2c(Nc3ccc(NC(=O)c4ccccc4)cc3)ncnc2cc1OCCCN1CCOCC1,1.56

# Tested on: NCI-H596;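 further: growth inhibition of NCI-H596 cells, read out with a cell viability assay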
# Experiment: cells
# Format: functional, cell-based, Homo sapiens
# Details: Homo sapiens, NCI-H596
# Description: SANGER: Inhibition of human NCI-H596 cell growth in a cell viability assay.
row,SMILES,IC50 [µM]
1,COc1cc2c(Nc3ccc(NC(=O)c4ccccc4)cc3)ncnc2cc1OCCCN1CCOCC1,> 4

# Tested on: NCI-H1573;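 further: growth inhibition of NCI-H1573 cells, read out with a cell viability assay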
# Experiment: cells
# Format: functional, cell-based, Homo sapiens
# Details: Homo sapiens, NCI-H1573
# Description: SANGER: Inhibition of human NCI-H1573 cell growth in a cell viability assay.
row,SMILES,IC50 [µM]
1,COc1cc2c(Nc3ccc(NC(=O)c4ccccc4)cc3)ncnc2cc1OCCCN1CCOCC1,> 4

# Tested on: SAS;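 further: growth inhibition of SAS cells, read out with a cell viability assay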
# Experiment: cells
# Format: functional, cell-based, Homo sapiens
# Details: Homo sapiens, SAS
# Description: SANGER: Inhibition of human SAS cell growth in a cell viability assay.
row,SMILES,IC50 [µM]
1,COc1cc2c(Nc3ccc(NC(=O)c4ccccc4)cc3)ncnc2cc1OCCCN1CCOCC1,> 4

# Tested on: RMG-I;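 further: growth inhibition of human RMG-I cells, read out with a cell viability assay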
# Experiment: cells
# Format: functional, cell-based, Homo sapiens
# Details: Homo sapiens, RMG-I
# Description: SANGER: Inhibition of human RMG-I cell growth in a cell viability assay.
row,SMILES,IC50 [µM]
1,COc1cc2c(Nc3ccc(NC(=O)c4ccccc4)cc3)ncnc2cc1OCCCN1CCOCC1,> 4

# Tested on: MFE-280;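 further: growth inhibition of MFE-280 cells, determined with a cell viability readout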
# Experiment: cells
# Format: functional, cell-based, Homo sapiens
# Details: Homo sapiens, MFE-280
# Description: SANGER: Inhibition of human MFE-280 cell growth in a cell viability assay.
row,SMILES,IC50 [µM]
1,COc1cc2c(Nc3ccc(NC(=O)c4ccccc4)cc3)ncnc2cc1OCCCN1CCOCC1,3.41

# Tested on: NCI-H661;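 further: cell viability assay read-out, IC50 being the concentration that inhibits growth of the cells by half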
# Experiment: cells
# Format: functional, cell-based, Homo sapiens
# Details: Homo sapiens, NCI-H661
# Description: SANGER: Inhibition of human NCI-H661 cell growth in a cell viability assay.
row,SMILES,IC50 [µM]
1,COc1cc2c(Nc3ccc(NC(=O)c4ccccc4)cc3)ncnc2cc1OCCCN1CCOCC1,2.99

# Tested on: COR-L105;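 further: cell growth inhibition determined with a viability assay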
# Experiment: cells
# Format: functional, cell-based, Homo sapiens
# Details: Homo sapiens, COR-L105
# Description: SANGER: Inhibition of human COR-L105 cell growth in a cell viability assay.
row,SMILES,IC50 [µM]
1,COc1cc2c(Nc3ccc(NC(=O)c4ccccc4)cc3)ncnc2cc1OCCCN1CCOCC1,> 4

# Tested on: HT-1376
# Experiment: cells
# Format: functional, cell-based, Homo sapiens
# Details: Homo sapiens, HT-1376
# Description: SANGER: Inhibition of human HT-1376 cell growth in a cell viability assay.
row,SMILES,IC50 [µM]
1,COc1cc2c(Nc3ccc(NC(=O)c4ccccc4)cc3)ncnc2cc1OCCCN1CCOCC1,> 4

# Tested on: P12-Ichikawa
# Experiment: cells
# Format: functional, cell-based, Homo sapiens
# Details: Homo sapiens, P12-Ichikawa
row,SMILES,IC50 [µM]
1,COc1cc2c(Nc3ccc(NC(=O)c4ccccc4)cc3)ncnc2cc1OCCCN1CCOCC1,0.224

# Tested on: UMC-11;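 further: growth inhibition of UMC-11 cells, read out with a cell viability assay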
# Experiment: cells
# Format: functional, cell-based, Homo sapiens
# Details: Homo sapiens, UMC-11
# Description: SANGER: Inhibition of human UMC-11 cell growth in a cell viability assay.
row,SMILES,IC50 [µM]
1,COc1cc2c(Nc3ccc(NC(=O)c4ccccc4)cc3)ncnc2cc1OCCCN1CCOCC1,2.37

# Tested on: SK-N-AS;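 further: growth inhibition of human SK-N-AS cells, measured with a cell viability assay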
# Experiment: cells
# Format: functional, cell-based, Homo sapiens
# Details: Homo sapiens, SK-N-AS
# Description: SANGER: Inhibition of human SK-N-AS cell growth in a cell viability assay.
row,SMILES,IC50 [µM]
1,COc1cc2c(Nc3ccc(NC(=O)c4ccccc4)cc3)ncnc2cc1OCCCN1CCOCC1,> 4

# Tested on: BEN;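 further: growth inhibition of the BEN cell line, read out with a cell viability assay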
# Experiment: cells
# Format: functional, cell-based, Homo sapiens
# Details: Homo sapiens, BEN
# Description: SANGER: Inhibition of human BEN cell growth in a cell viability assay.
row,SMILES,IC50 [µM]
1,COc1cc2c(Nc3ccc(NC(=O)c4ccccc4)cc3)ncnc2cc1OCCCN1CCOCC1,> 4

# Tested on: AGS;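 further: growth inhibition of AGS cells, determined with a cell viability assay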
# Experiment: cells
# Format: functional, cell-based, Homo sapiens
# Details: Homo sapiens, AGS
# Description: SANGER: Inhibition of human AGS cell growth in a cell viability assay.
row,SMILES,IC50 [µM]
1,COc1cc2c(Nc3ccc(NC(=O)c4ccccc4)cc3)ncnc2cc1OCCCN1CCOCC1,> 4

# Tested on: T84;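 further: growth inhibition measured with a cell viability readout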
# Experiment: cells
# Format: functional, cell-based, Homo sapiens
# Details: Homo sapiens, T84
# Description: SANGER: Inhibition of human T84 cell growth in a cell viability assay.
row,SMILES,IC50 [µM]
1,COc1cc2c(Nc3ccc(NC(=O)c4ccccc4)cc3)ncnc2cc1OCCCN1CCOCC1,> 4

# Tested on: CAL-72;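 further: cell viability assay measuring inhibition of proliferation in the CAL-72 cell line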
# Experiment: cells
# Format: functional, cell-based, Homo sapiens
# Details: Homo sapiens, CAL-72
# Description: SANGER: Inhibition of human CAL-72 cell growth in a cell viability assay.
row,SMILES,IC50 [µM]
1,COc1cc2c(Nc3ccc(NC(=O)c4ccccc4)cc3)ncnc2cc1OCCCN1CCOCC1,> 4

# Tested on: NCI-H810;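 further: IC50 reflects inhibition of cancer cell line growth, read out with a cell viability assay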
# Experiment: cells
# Format: functional, cell-based, Homo sapiens
# Details: Homo sapiens, NCI-H810
# Description: SANGER: Inhibition of human NCI-H810 cell growth in a cell viability assay.
row,SMILES,IC50 [µM]
1,COc1cc2c(Nc3ccc(NC(=O)c4ccccc4)cc3)ncnc2cc1OCCCN1CCOCC1,> 4

# Tested on: AU565;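 further: cell viability assay measuring growth inhibition of human AU565 cells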
# Experiment: cells
# Format: functional, cell-based, Homo sapiens
# Details: Homo sapiens, AU565
# Description: SANGER: Inhibition of human AU565 cell growth in a cell viability assay.
row,SMILES,IC50 [µM]
1,COc1cc2c(Nc3ccc(NC(=O)c4ccccc4)cc3)ncnc2cc1OCCCN1CCOCC1,> 4

# Tested on: BFTC-905
# Experiment: cells
# Format: functional, cell-based, Homo sapiens
# Details: Homo sapiens, BFTC-905
# Description: SANGER: Inhibition of human BFTC-905 cell growth in a cell viability assay.
row,SMILES,IC50 [µM]
1,COc1cc2c(Nc3ccc(NC(=O)c4ccccc4)cc3)ncnc2cc1OCCCN1CCOCC1,2.42

# Tested on: HT55;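 further: cell viability readout measuring growth inhibition of human HT55 cells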
# Experiment: cells
# Format: functional, cell-based, Homo sapiens
# Details: Homo sapiens, HT55
# Description: SANGER: Inhibition of human HT55 cell growth in a cell viability assay.
row,SMILES,IC50 [µM]
1,COc1cc2c(Nc3ccc(NC(=O)c4ccccc4)cc3)ncnc2cc1OCCCN1CCOCC1,> 4

# Tested on: NCI-H441;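 further: growth inhibition of NCI-H441 cells, read out with a cell viability assay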
# Experiment: cells
# Format: functional, cell-based, Homo sapiens
# Details: Homo sapiens, NCI-H441
# Description: SANGER: Inhibition of human NCI-H441 cell growth in a cell viability assay.
row,SMILES,IC50 [µM]
1,COc1cc2c(Nc3ccc(NC(=O)c4ccccc4)cc3)ncnc2cc1OCCCN1CCOCC1,> 4

# Tested on: RPMI-7951
# Experiment: cells
# Format: functional, cell-based, Homo sapiens
# Details: Homo sapiens, RPMI-7951
# Description: SANGER: Inhibition of human RPMI-7951 cell growth in a cell viability assay.
row,SMILES,IC50 [µM]
1,COc1cc2c(Nc3ccc(NC(=O)c4ccccc4)cc3)ncnc2cc1OCCCN1CCOCC1,> 4

# Tested on: BT-549
# Experiment: cells
# Format: functional, cell-based, Homo sapiens
# Details: Homo sapiens, BT-549
# Description: SANGER: Inhibition of human BT-549 cell growth in a cell viability assay.
row,SMILES,IC50 [µM]
1,COc1cc2c(Nc3ccc(NC(=O)c4ccccc4)cc3)ncnc2cc1OCCCN1CCOCC1,> 4

# Tested on: NCI-H1792;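 further: growth inhibition of human NCI-H1792 cells, read out as cell viability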
# Experiment: cells
# Format: functional, cell-based, Homo sapiens
# Details: Homo sapiens, NCI-H1792
# Description: SANGER: Inhibition of human NCI-H1792 cell growth in a cell viability assay.
row,SMILES,IC50 [µM]
1,COc1cc2c(Nc3ccc(NC(=O)c4ccccc4)cc3)ncnc2cc1OCCCN1CCOCC1,> 4

# Tested on: EPLC-272H
# Experiment: cells
# Format: functional, cell-based, Homo sapiens
# Details: Homo sapiens, EPLC-272H
# Description: SANGER: Inhibition of human EPLC-272H cell growth in a cell viability assay.
row,SMILES,IC50 [µM]
1,COc1cc2c(Nc3ccc(NC(=O)c4ccccc4)cc3)ncnc2cc1OCCCN1CCOCC1,> 4

# Tested on: HT-29;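 further: growth inhibition of human HT-29 cells, read out by a cell viability assay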
# Experiment: cells
# Format: functional, cell-based, Homo sapiens
# Details: Homo sapiens, HT-29
# Description: SANGER: Inhibition of human HT-29 cell growth in a cell viability assay.
row,SMILES,IC50 [µM]
1,COc1cc2c(Nc3ccc(NC(=O)c4ccccc4)cc3)ncnc2cc1OCCCN1CCOCC1,> 4

# Tested on: NCI-H2342;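 further: growth inhibition of the cancer cell line, determined with a cell viability assay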
# Experiment: cells
# Format: functional, cell-based, Homo sapiens
# Details: Homo sapiens, NCI-H2342
# Description: SANGER: Inhibition of human NCI-H2342 cell growth in a cell viability assay.
row,SMILES,IC50 [µM]
1,COc1cc2c(Nc3ccc(NC(=O)c4ccccc4)cc3)ncnc2cc1OCCCN1CCOCC1,> 4

# Tested on: NCI-H1993;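 further: growth inhibition of the cancer cell line, assessed with a cell viability assay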
# Experiment: cells
# Format: functional, cell-based, Homo sapiens
# Details: Homo sapiens, NCI-H1993
# Description: SANGER: Inhibition of human NCI-H1993 cell growth in a cell viability assay.
row,SMILES,IC50 [µM]
1,COc1cc2c(Nc3ccc(NC(=O)c4ccccc4)cc3)ncnc2cc1OCCCN1CCOCC1,> 4

# Tested on: HLE;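 further: growth inhibition of human HLE cells, read out by a cell viability assay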
# Experiment: cells
# Format: functional, cell-based, Homo sapiens
# Details: Homo sapiens, HLE
# Description: SANGER: Inhibition of human HLE cell growth in a cell viability assay.
row,SMILES,IC50 [µM]
1,COc1cc2c(Nc3ccc(NC(=O)c4ccccc4)cc3)ncnc2cc1OCCCN1CCOCC1,> 4

# Tested on: SW1088;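 further: growth inhibition of human SW1088 cells, read out by a cell viability assay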
# Experiment: cells
# Format: functional, cell-based, Homo sapiens
# Details: Homo sapiens, SW1088
# Description: SANGER: Inhibition of human SW1088 cell growth in a cell viability assay.
row,SMILES,IC50 [µM]
1,COc1cc2c(Nc3ccc(NC(=O)c4ccccc4)cc3)ncnc2cc1OCCCN1CCOCC1,> 4

# Tested on: UACC-62;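 further: growth inhibition of human UACC-62 cells, read out by a cell viability assay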
# Experiment: cells
# Format: functional, cell-based, Homo sapiens
# Details: Homo sapiens, UACC-62
# Description: SANGER: Inhibition of human UACC-62 cell growth in a cell viability assay.
row,SMILES,IC50 [µM]
1,COc1cc2c(Nc3ccc(NC(=O)c4ccccc4)cc3)ncnc2cc1OCCCN1CCOCC1,> 4

# Tested on: CAMA-1;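 further: growth inhibition of CAMA-1 cells, read out with a cell viability assay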
# Experiment: cells
# Format: functional, cell-based, Homo sapiens
# Details: Homo sapiens, CAMA-1
# Description: SANGER: Inhibition of human CAMA-1 cell growth in a cell viability assay.
row,SMILES,IC50 [µM]
1,COc1cc2c(Nc3ccc(NC(=O)c4ccccc4)cc3)ncnc2cc1OCCCN1CCOCC1,> 4

# Tested on: SW948;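 further: growth inhibition of SW948 cells, read out with a cell viability assay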
# Experiment: cells
# Format: functional, cell-based, Homo sapiens
# Details: Homo sapiens, SW948
# Description: SANGER: Inhibition of human SW948 cell growth in a cell viability assay.
row,SMILES,IC50 [µM]
1,COc1cc2c(Nc3ccc(NC(=O)c4ccccc4)cc3)ncnc2cc1OCCCN1CCOCC1,> 4

# Tested on: NCI-H2122;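 further: growth inhibition of the cells, read out with a cell viability assay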
# Experiment: cells
# Format: functional, cell-based, Homo sapiens
# Details: Homo sapiens, NCI-H2122
# Description: SANGER: Inhibition of human NCI-H2122 cell growth in a cell viability assay.
row,SMILES,IC50 [µM]
1,COc1cc2c(Nc3ccc(NC(=O)c4ccccc4)cc3)ncnc2cc1OCCCN1CCOCC1,> 4

# Tested on: SK-LU-1;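 further: cell viability assay measuring growth inhibition of human SK-LU-1 cells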
# Experiment: cells
# Format: functional, cell-based, Homo sapiens
# Details: Homo sapiens, SK-LU-1
# Description: SANGER: Inhibition of human SK-LU-1 cell growth in a cell viability assay.
row,SMILES,IC50 [µM]
1,COc1cc2c(Nc3ccc(NC(=O)c4ccccc4)cc3)ncnc2cc1OCCCN1CCOCC1,> 4

# Tested on: Calu-3;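 further: growth inhibition of human Calu-3 cells, determined with a cell viability assay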
# Experiment: cells
# Format: functional, cell-based, Homo sapiens
# Details: Homo sapiens, Calu-3
# Description: SANGER: Inhibition of human Calu-3 cell growth in a cell viability assay.
row,SMILES,IC50 [µM]
1,COc1cc2c(Nc3ccc(NC(=O)c4ccccc4)cc3)ncnc2cc1OCCCN1CCOCC1,> 4

# Tested on: JEG-3;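 further: growth inhibition of human JEG-3 cells, read out with a cell viability assay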
# Experiment: cells
# Format: functional, cell-based, Homo sapiens
# Details: Homo sapiens, JEG-3
# Description: SANGER: Inhibition of human JEG-3 cell growth in a cell viability assay.
row,SMILES,IC50 [µM]
1,COc1cc2c(Nc3ccc(NC(=O)c4ccccc4)cc3)ncnc2cc1OCCCN1CCOCC1,> 4

# Tested on: D-423MG
# Experiment: cells
# Format: functional, cell-based, Homo sapiens
# Details: Homo sapiens, D-423MG
# Description: SANGER: Inhibition of human D-423MG cell growth in a cell viability assay.
row,SMILES,IC50 [µM]
1,COc1cc2c(Nc3ccc(NC(=O)c4ccccc4)cc3)ncnc2cc1OCCCN1CCOCC1,> 4
